The text below walks through data of patent publication US7834013B2, “Aminophenylcyclopropyl carboxylic acids and derivatives as agonists to GPR40” (GlaxoSmithKline LLC, priority 2003, dated 2010).

Molecules are shown by their SMILES. Structures can show the parent of a compound that is named as a salt.

This experiment has as its target T1, GPR40 (Homo sapiens, UniProt O14842).
T1 construct: expressed in transfected cells
The experiment in a line: GPR40 SAR Primary Assay (Elk-1/Gal4-luc+ reporter, luciferase activity). To be noted: stable GPR40 Elk-1/Gal4-luc+ CHO cell line, 5 hours incubation. It counts as cell-based. The procedure: An existing stable GPR40 Elk-1/Gal4-luc^+ CHO cell line generated by electroporation and functional cloning was used. Cells were maintained in a humidified incubator at 37° C./5% CO2 in complete media containing DMEM/F12 (Gibco, #11039-021), 5% FBS (Gibco, #16140-071) and 1% Glutamine (Gibco, #25030-081). Cell maintenance passages were made at 1:40 dilution every 3-4 days. Forty eight hours prior to assay, 15e6 cells were added to 200 ml of complete media then seeded into a 1200 cm^2-cell factory and returned to a humidified incubator at 37° C./5% CO2. 20 hours prior to assay, the growth media was removed and replaced with 200 ml of serum-free DMEM/F12 to quiesce background activity. At the time of assay, cells were harvested using non-enzymatic cell dissociation solution (Sigma, #C-5914), washed and counted. The 20 hour starve media was collected and used as condition media for cell assay plating. Cells were plated at a concentration of 10,000 cells/well in a total well volume of […] in black 96-well clear bottom polystyrene plates (CoStar, #3904). Test compounds were prepared as serial dilutions in 100% DMSO, then 1 ul was delivered to each well resulting in a final concentration of 1% DMSO. The plates were then returned to a humidified incubator at 37° C./5% CO2 for 5 hours. Following the incubation, the medium was replaced with 50 ul of a 1:1 mixture of SteadyGlo™ (Promega, #E2550) and dPBS containing 1 mM CaCl2 and 1 mM MgCl2. Plates were then sealed and subjected to dark adaptation at room temperature for 10 minutes. Luciferase activity was measured on a Packard TopCount™ microplate scintillation counter using 2 seconds per well count time.
Data analysis was performed using standard methods.
The Normalization Equation used was 100*(Unknown compound response−Background response)/(Agonist Max response−Background response).
The Curve Fit Function used was y=((Vmax*x^n)/(K^n+x^n))+Y2.
A percent max response and pEC50 were recorded for each compound. Although specific pEC50 values are given, these values should be considered exemplary. Those skilled in the art will appreciate the variability in performing and recording the biological activity assays that are herein described. The compounds of the present invention provide a pEC50 of at least 5.0.

T1 sequence (O14842 whole entry): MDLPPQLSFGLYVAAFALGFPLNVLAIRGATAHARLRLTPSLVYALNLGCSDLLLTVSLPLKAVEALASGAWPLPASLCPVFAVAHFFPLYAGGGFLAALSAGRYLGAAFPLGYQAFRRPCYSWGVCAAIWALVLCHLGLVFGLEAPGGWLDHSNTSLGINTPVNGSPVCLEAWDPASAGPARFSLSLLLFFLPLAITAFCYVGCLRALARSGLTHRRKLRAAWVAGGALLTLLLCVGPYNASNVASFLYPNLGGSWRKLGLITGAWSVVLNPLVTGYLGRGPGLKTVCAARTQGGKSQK

On to `Cc1nc(-c2ccc(C(F)(F)F)cc2)sc1CNc1ccc(C2CC2C(=O)O)cc1` (single isomer, unassigned; (-)) [Example 29, (−)-(cis)-2-{4-[({4-methyl-2-[4-(trifluoromethyl)phenyl]-1,3-thiazol-5-yl}methyl)amino]phenyl}cyclopropanecarboxylic Acid], for which it took 316 nM to reach a half-maximal effect (EC50).

Regarding `O=C(O)[C@H]1C[C@@H]1c1ccc(NCc2cccc(Oc3cc(Cl)cc(Cl)c3)c2)cc1` [Example 32, (+)-(trans)-2-{4-[({3-[(3,5-dichlorophenyl)oxy]phenyl}methyl)amino]phenyl}cyclopropanecarboxylic Acid trifluoroacetate], the EC50 (as a rule, the concentration needed to bring the measured effect to its halfway point) was 5.01 nM.

Regarding `O=C(O)[C@H]1C[C@@H]1c1ccc(NCc2cccc(Oc3cccc(C(F)(F)F)c3)c2)cc1` [Example 33, (+)-(trans)-2-(4-{[(3-{[3-(trifluoromethyl)phenyl]oxy}phenyl)methyl]amino}phenyl)cyclopropanecarboxy lic Acid], the EC50 was 25.1 nM.

`Cc1ccc(Oc2cccc(CNc3ccc([C@H]4C[C@@H]4C(=O)O)cc3)c2)cc1` [Example 34, (+)-(trans)-2-{4-[({3-[(4-methylphenyl)oxy]phenyl}methyl)amino]phenyl}cyclopropanecarboxylic Acid Trifluoroacetate]: the response was half-maximal at 7.94 nM (EC50).

As to `Cc1nc(-c2ccc(C(F)(F)F)cc2)sc1CNc1ccc(C2CC2C(=O)N[C@@H](C)c2ccccc2)cc1` (stereo partly drawn) [Example 40, Enantiomerically Enriched (trans)-2-{4-[({4-methyl-2-[4-(trifluoromethyl)phenyl]-1,3-thiazol-5-yl}methyl)amino]phenyl}-N-[(1S)-1-phenylethyl]cyclopropanecarboxamide], the EC50 is 50.1 nM.

In turn, `Cc1nc(-c2ccc(C(F)(F)F)cc2)sc1CNc1ccc(C2CC2C(=O)NC(C)C)cc1` (stereo not drawn) [Example 53, Enantiomerically Enriched N-isopropyl-2-{4-[({4-methyl-2-[4-(trifluoromethyl)phenyl]-1,3-thiazol-5-yl}methyl)amino]phenyl}cyclopropanecarboxamide] showed an EC50 of 10 nM.

Take `O=C(NCC1CC1)C1CC1c1ccc(NCc2cccc(Oc3ccccc3)c2)cc1` (stereo not drawn) [Example 54, Enantiomerically Enriched N-(cyclopropylmethyl)-2-{4-[(3-phenoxybenzyl)amino]phenyl}cyclopropanecarboxamide]: the EC50 is 20 nM.
